We go through 19 compounds from patent US20230218710A1, “METHOD OF TREATING CORONAVIRUS INFECTIONS” (priority 2020, published 2023).

Square brackets hold non-standard residues; d marks the D form. Peptide text beside a SMILES is read from it.

human APJ, sequence (P32121 whole entry partner, one chain of several): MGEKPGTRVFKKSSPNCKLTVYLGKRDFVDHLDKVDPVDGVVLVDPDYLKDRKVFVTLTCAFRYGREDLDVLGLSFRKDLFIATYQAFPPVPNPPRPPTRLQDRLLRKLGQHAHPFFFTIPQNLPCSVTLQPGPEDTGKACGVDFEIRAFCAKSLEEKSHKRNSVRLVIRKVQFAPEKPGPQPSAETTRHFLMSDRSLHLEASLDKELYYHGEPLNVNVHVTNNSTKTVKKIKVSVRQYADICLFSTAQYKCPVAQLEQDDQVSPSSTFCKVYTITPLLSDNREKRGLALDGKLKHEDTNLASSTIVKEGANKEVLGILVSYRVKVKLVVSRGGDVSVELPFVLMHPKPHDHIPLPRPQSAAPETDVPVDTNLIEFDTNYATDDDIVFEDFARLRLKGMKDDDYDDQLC

For one data set, the target named is human APJ (Homo sapiens, UniProt P35414). Put plainly: cell-based. As to conditions: CHO-K1, 1.5 h, read-out: Percent of Apelin-13 Control Activity. On the procedure:
The effect of the peptides on activation of Apelin Receptor (APJ) can be assessed using an assay to monitor β-Arrestin recruitment in cultured cells overexpressing APJ such as CHO-K1, derived from Chinese hamster ovary. β-Arrestin recruitment assays were performed by Eurofins-DiscoverX (Fremont, Calif.) using CHO-K1 AGTRL1 β-Arrestin cell line (co-expressing ProLink tagged human APJ and Enzyme Acceptor tagged β-Arrestin) and PathHunter detection kit. Peptides were initially prepared either as 10 mM stock in DMSO and used at a final concentration of 10 μM (0.1% DMSO). CHO-K1 AGTRL1 β-Arrestin cells were seed onto 384-well plates in standard medium. […] Following 90 min. incubation at 37° C., β-Arrestin recruitment in response to various treatments was quantified using a chemiluminescent complementation reporter assay to measure association of tagged human APJ (ProLink tag) and tagged β-Arrestin (Enzyme Acceptor tag).
Turning to `COCCOCCOCCOCCOCCOCCOCCOCCOCCOCCOCCOCCC(=O)N[C@@H](CCCCN)C(=O)N[C@@H](CCCNC(=N)N)C(=O)N[C@@H](CCCNC(=N)N)C(=O)N[C@@H](CCSC)C(=O)N[C@@H](CCSC)C(=O)NCC(=O)N[C@@H](CCSC)C(=O)N[C@H](C(=O)N[C@@H](Cc1ccccc1)C(=O)N[C@@H](CCC(N)=O)C(=O)N[C@@H](CO)C(=O)N[C@@H](CC(C)C)C(=O)N[C@@H](CS)C(=O)NCC(=O)N[C@H](C)C(=O)O)C(C)C` [compound 36], the Emax at 10 µM worked out at 63%.

The target in the next data set is T1, Apelin Receptor (APJ) (Homo sapiens, UniProt P35414).
T1 construct: host or cells: CHO-K1 AGTRL1 Gi cells
T1 sequence (P35414 1-380): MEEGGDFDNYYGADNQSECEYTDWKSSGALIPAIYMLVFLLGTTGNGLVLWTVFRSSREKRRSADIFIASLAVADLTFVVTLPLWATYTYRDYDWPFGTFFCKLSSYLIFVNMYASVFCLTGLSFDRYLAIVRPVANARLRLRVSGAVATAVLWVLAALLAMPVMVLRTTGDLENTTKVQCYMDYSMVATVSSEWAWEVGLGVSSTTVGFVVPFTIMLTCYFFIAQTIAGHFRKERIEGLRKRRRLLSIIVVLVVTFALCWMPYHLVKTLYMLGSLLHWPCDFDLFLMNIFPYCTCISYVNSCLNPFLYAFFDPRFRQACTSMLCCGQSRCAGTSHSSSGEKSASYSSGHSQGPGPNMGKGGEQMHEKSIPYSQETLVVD
Put plainly: cell-based. As to conditions: CHO-K1, 0.5 h, read-out: Percent of Pyr-Apelin-13 Control Activity. The procedure:
Peptides were initially prepared as 30 mM stock in DMSO and diluted to 3 mM in H2O or directly as 3 mM stock in H2O; used at a final concentration of 10 μM (0-0.1% DMSO).
As to `COCCOCCOCCOCCOCCOCCOCCOCCOCCOCCOCCOCCC(=O)N[C@@H](CCCCN)C(=O)N[C@@H](CCCNC(=N)N)C(=O)N[C@@H](CCCNC(=N)N)C(=O)N[C@@H](CCSC)C(=O)N[C@@H](CCSC)C(=O)NCC(=O)N[C@@H](CCSC)C(=O)N[C@H](C(=O)N[C@@H](Cc1ccccc1)C(=O)N[C@@H](CCC(N)=O)C(=O)N[C@@H](CO)C(=O)N[C@@H](CC(C)C)C(=O)N[C@@H](CS)C(=O)NCC(=O)N[C@H](C)C(=O)O)C(C)C` [compound 36], the Emax at 10 µM was determined as 101%.

Another data set has as its system LPS-induced acute lung injury mouse model. Put plainly: LPS-induced acute lung injury model in mouse (Example 6). The conditions noted are these: histopathology, 0-5 scale, 24 h after LPS, 5 mg/kg i.p. The format is in vivo, mice. On the procedure:
The effect of the peptides of the current invention on acute lung injury can be assessed in an LPS-induced acute lung injury mouse model by monitoring outcomes such as lung weight, fluid accumulation, cytokine secretion in blood or bronchoalveolar lavage fluid (BALF), neutrophil infiltration into lung tissues, and assessment of acute lung injury score by histopathology. Acute lung injury was induced in male C57BL/6 mice (6 to 8 weeks old) by intratracheal administration of 40 μL lipopolysaccharide (LPS) (Sigma Aldrich, St. Louis, Mo.) in PBS at 5 mg/kg. Control animals received intratracheal PBS alone. […] Treatments were administered 1 h prior to LPS for animals designated for sacrifice at 4 h after LPS, or at both 1 h prior to and 6 h after LPS for animals designated for sacrifice at 24 h after LPS. At 4 or 24 hours post LPS administration, tissues were harvested. Lungs were weighed, flushed with Hanks Buffer to provide bronchoalveolar lavage fluid (BALF). Lungs were fixed in 10% neutral buffered formalin (NBF) for histopathology. Tissue slides were stained with hematoxylin and eosin (H&E) and evaluated and scored with light microscopy of 5 representative microscopic fields (100× magnification) scoring on a 0-5 scale using standard methods (Matute-Bello G et al 2011. An Official American Thoracic Society Workshop Report: Features and Measurements of Experimental Acute Lung Injury in Animals. Am J Respir Cell Mol Biol 44:725-38). The average score for five fields was calculated for each animal. Levels of pro-inflammatory cytokines in BALF were determined using a meso scale discovery (MSD) system. Data for test peptides were compared to the vehicle control group. Lung weights were normalized to body weight.
For “(PEG12)KRRMMGMVFQSLCG(dA) (KRRMMGMVFQSLCGA; N-terminal PEG12; C-terminal D-alanine; (1)..(1) PEG12; (15)..(15) D-Ala) [SEQ ID NO: 36]”, the “Mean (SEM) Alveolar Neutrophil Infiltration Score” value is recorded as 1.98 (0.18) and the “Mean (SEM) Interstitial Neutrophil Infiltration Score” value was 1.60 (0.14).

Staying with this data set, now noted: histopathology, 24 h after LPS, 5 mg/kg i.p.
On to “(PEG12)KRRMMGMVFQSLCG(dA) (KRRMMGMVFQSLCGA; N-terminal PEG12; C-terminal D-alanine; (1)..(1) PEG12; (15)..(15) D-Ala) [SEQ ID NO: 36]”, for which the “Mean (SEM) Composite Lung Injury Score” value is 3.65 (0.28).

Test system in the next data set: not listed separately
Put plainly: in vitro. The conditions noted are these: human, pooled human plasma.
Description: The metabolic stability of the peptides can be assessed in vitro by incubation in plasma and determination of the amount of peptide remaining over time. Peptides (50 μM) were incubated in pooled plasma from mice, monkeys, and humans at 37° C. Samples were removed at intervals up to 3 hours and immediately analyzed for the concentration of intact peptide by LC/MS/MS. The percent of peptide remaining in plasma at each time point was calculated relative to the initial peak area.
As for `CSCC[C@H](NC(=O)CNC(=O)[C@H](CCSC)NC(=O)[C@H](CCSC)NC(=O)[C@H](CCCNC(=N)N)NC(=O)[C@@H](N)CCCNC(=N)N)C(=O)N[C@H](C(=O)N[C@@H](Cc1ccccc1)C(=O)N[C@@H](CCC(N)=O)C(=O)O)C(C)C` [compound 58] (H-RRMMGMVFQ-OH), the amount remaining (usually what is left of the initial amount, in per cent) at 0.5 h, 50 μM was 69.5%.

Take `CSCC[C@H](NC(=O)CNC(=O)[C@H](CCSC)NC(=O)[C@@H](N)CCSC)C(=O)N[C@H](C(=O)N[C@@H](Cc1ccccc1)C(=O)N[C@@H](CCC(N)=O)C(=O)O)C(C)C` [compound 46] (H-MMGMVFQ-OH): the amount remaining at 0.5 h, 50 μM was determined as 100%.

With `CSCC[C@H](NC(=O)CNC(=O)[C@H](CCSC)NC(=O)[C@H](CCSC)NC(=O)[C@@H](N)CCCNC(=N)N)C(=O)N[C@H](C(=O)N[C@@H](Cc1ccccc1)C(=O)N[C@@H](CCC(N)=O)C(=O)O)C(C)C` [compound 51] (H-RMMGMVFQ-OH), the fraction remaining at 0.5 h, 50 μM amounted to 100%.

For the compound `CSCC[C@H](NC(=O)CNC(=O)[C@H](CCSC)NC(=O)[C@@H](N)CCSC)C(=O)N[C@H](C(=O)N[C@@H](Cc1ccccc1)C(=O)O)C(C)C` [compound 45] (H-MMGMVF-OH), the fraction remaining at 0.5 h, 50 μM turned out to be 90.8%.

The compound `CSCC[C@H](NC(=O)CNC(=O)[C@H](CCSC)NC(=O)[C@@H](N)CCSC)C(=O)N[C@H](C(=O)N[C@@H](Cc1ccccc1)C(=O)N[C@@H](CCC(N)=O)C(=O)N[C@@H](CO)C(=O)N[C@@H](CC(C)C)C(=O)O)C(C)C` [compound 48] (H-MMGMVFQSL-OH) yielded an amount remaining at 0.5 h, 50 μM of 92%.

The compound `CSCC[C@H](NC(=O)CNC(=O)[C@H](CCSC)NC(=O)[C@H](CCSC)NC(=O)[C@H](CCCNC(=N)N)NC(=O)[C@H](CCCNC(=N)N)NC(=O)[C@@H](N)CCSC)C(=O)N[C@H](C(=O)N[C@@H](Cc1ccccc1)C(=O)N[C@@H](CCC(N)=O)C(=O)N[C@@H](CS)C(=O)N[C@@H](CC(C)C)C(=O)N[C@@H](CS)C(=O)NCC(=O)N[C@@H](CC(C)C)C(=O)O)C(C)C` [compound 7] came in with a fraction remaining at 0.5 h, 50 μM of 52.4%.

The compound `CSCC[C@H](NC(=O)CNC(=O)[C@H](CCSC)NC(=O)[C@H](CCSC)NC(=O)[C@H](CCCNC(=N)N)NC(=O)[C@@H](N)CCCNC(=N)N)C(=O)O` [compound 55] (H-RRMMGM-OH) gave a share remaining at 0.5 h, 50 μM of 100%.

The compound `CSCC[C@H](NC(=O)CNC(=O)[C@H](CCSC)NC(=O)[C@H](CCSC)NC(=O)[C@H](CCCNC(=N)N)NC(=O)[C@@H](N)CCCNC(=N)N)C(=O)N[C@H](C(=O)N[C@@H](Cc1ccccc1)C(=O)O)C(C)C` [compound 57] (H-RRMMGMVF-OH) returned an amount remaining at 0.5 h, 50 μM of 91.9%.

Consider `CSCC[C@H](NC(=O)CNC(=O)[C@H](CCSC)NC(=O)[C@H](CCSC)NC(=O)[C@H](CCCNC(=N)N)NC(=O)[C@@H](N)CCCNC(=N)N)C(=O)N[C@H](C(=O)O)C(C)C` [compound 56] (H-RRMMGMV-OH), for which the fraction remaining at 0.5 h, 50 μM was 92.1%.

In turn, `CSCC[C@H](NC(=O)CNC(=O)[C@H](CCSC)NC(=O)[C@@H](N)CCSC)C(=O)N[C@H](C(=O)N[C@@H](Cc1ccccc1)C(=O)N[C@@H](CCC(N)=O)C(=O)N[C@@H](CO)C(=O)O)C(C)C` [compound 47] (H-MMGMVFQS-OH) gave a fraction remaining at 0.5 h, 50 μM of 86.1%.

The compound `CSCC[C@H](NC(=O)CNC(=O)[C@H](CCSC)NC(=O)[C@H](CCSC)NC(=O)[C@H](CCCNC(=N)N)NC(=O)[C@@H](N)CCCNC(=N)N)C(=O)N[C@H](C(=O)N[C@@H](Cc1ccccc1)C(=O)N[C@@H](CCC(N)=O)C(=O)N[C@@H](CO)C(=O)N[C@@H](CC(C)C)C(=O)O)C(C)C` [compound 60] (H-RRMMGMVFQSL-OH) came in with a fraction remaining at 0.5 h, 50 μM of 95%.

For the compound `CSCC[C@H](NC(=O)CNC(=O)[C@H](CCSC)NC(=O)[C@H](CCSC)NC(=O)[C@@H](N)CCCNC(=N)N)C(=O)N[C@H](C(=O)N[C@@H](Cc1ccccc1)C(=O)O)C(C)C` [compound 50] (H-RMMGMVF-OH), the share remaining at 0.5 h, 50 μM worked out at 87.7%.

With `CSCC[C@H](NC(=O)CNC(=O)[C@H](CCSC)NC(=O)[C@H](CCSC)NC(=O)[C@H](CCCNC(=N)N)NC(=O)[C@@H](N)CCCNC(=N)N)C(=O)N[C@H](C(=O)N[C@@H](Cc1ccccc1)C(=O)N[C@@H](CCC(N)=O)C(=O)N[C@@H](CO)C(=O)O)C(C)C` [compound 59] (H-RRMMGMVFQS-OH), the amount remaining at 0.5 h, 50 μM is 62.9%.

`CSCC[C@H](NC(=O)CNC(=O)[C@H](CCSC)NC(=O)[C@H](CCSC)NC(=O)[C@@H](N)CCCNC(=N)N)C(=O)N[C@H](C(=O)N[C@@H](Cc1ccccc1)C(=O)N[C@@H](CCC(N)=O)C(=O)N[C@@H](CO)C(=O)O)C(C)C` [compound 52] (H-RMMGMVFQS-OH) came in with an amount remaining at 0.5 h, 50 μM of 97.5%.

In the case of `CSCC[C@H](NC(=O)CNC(=O)[C@H](CCSC)NC(=O)[C@H](CCSC)NC(=O)[C@@H](N)CCCNC(=N)N)C(=O)N[C@H](C(=O)N[C@@H](Cc1ccccc1)C(=O)N[C@@H](CCC(N)=O)C(=O)N[C@@H](CO)C(=O)N[C@@H](CC(C)C)C(=O)O)C(C)C` [compound 53] (H-RMMGMVFQSL-OH), the share remaining at 0.5 h, 50 μM came to 85.8%.

The compound `CSCC[C@H](NC(=O)CNC(=O)[C@H](CCSC)NC(=O)[C@H](CCSC)NC(=O)[C@H](CCCNC(=N)N)NC(=O)[C@@H](N)CCCNC(=N)N)C(=O)N[C@H](C(=O)N[C@@H](Cc1ccccc1)C(=O)N[C@@H](CCC(N)=O)C(=O)N[C@@H](CO)C(=O)N[C@@H](CC(C)C)C(=O)N[C@@H](CS)C(=O)NCC(=O)N[C@H](C)C(N)=O)C(C)C` [compound 62] gave a fraction remaining at 0.5 h, 50 μM of 30.3%.

Compound `CC[C@H](C)[C@H](NC(=O)[C@H](CCCNC(=N)N)NC(=O)[C@@H](N)CCCNC(=N)N)C(=O)N[C@H](C(=O)N[C@H](C)C(=O)N[C@H](C(=O)N[C@H](C(=O)N[C@@H](Cc1ccccc1)C(=O)N[C@@H](CCC(N)=O)C(=O)N[C@@H](CS)C(=O)N[C@@H](CC(C)C)C(=O)N[C@@H](CS)C(=O)N[C@H](C)C(=O)N[C@@H](CC(C)C)C(=O)O)C(C)C)[C@@H](C)CC)[C@@H](C)CC` [compound 9] (H-RRII[dA]IVFQCLC[dA]L-OH) returned a share remaining at 0.5 h, 50 μM of 92.5%.
